The experiment deals with LLO strain. The experiment is described as follows: antibiogram of the strain LLO with antibiotic discs. The class given is cell-based, Lactococcus lactis. To be noted: antibiotic discs on Mueller Hinton medium, 5% horse blood, pH 7.3; 48 hours at ambient temperature; streptomycin 10 U.I., kanamycin 30 U.I., gentamicin 10 U.I. How it is done: An antibiogram has been produced with the strain LLO to study its resistance to several antibiotics.
The test is carried out on Mueller Hinton medium containing 1.7% agar and 5% horse blood, the pH is 7.3. The thickness of the agar in the Petri dishes is constant, it is 4 mm. It is a standardized medium according to the O.M.S. standards.
The LLO strain is cultivated in an MRS broth, pH 6.5, for […] at 15° C. until there is obtained the stationary phase. The culture is diluted to 1/10th in a Mueller Hinton broth. The approximate concentration of the suspension is 10^6 bacteria/ml.
The agar media are completely covered with 2 ml of the suspension. The excess liquid is withdrawn and the dishes are dried 10 minutes at ambient temperature. The antibiotic discs are deposited with the help of tongs (4 maximum). The dishes are incubated at ambient temperature for 48 hours.

Where a SMILES comes first, the peptide text is derived from it. Bridges are numbered along the chain shown (N, C = ends). [ ]: non-standard residue; d: D form. The star is where a group is joined. Ileψ(thiazoline)Cys = CC[C@H](C)[C@H](N)C1=N[C@H](C(=O)*)CS1; dOrn = NCCC[C@@H](N)C(=O)O

In the case of `CC[C@H]1OC(=O)[C@H](C)[C@@H](O[C@H]2C[C@@](C)(OC)[C@@H](O)[C@H](C)O2)[C@H](C)[C@@H](O[C@@H]2O[C@H](C)C[C@H](N(C)C)[C@H]2O)[C@](C)(O)C[C@@H](C)C(=O)[C@H](C)[C@@H](O)[C@]1(C)O` [Erythromycin], the “Result (antibiogram)” value is given as “Noticeable”.

Take Gentamicin: the “Result (antibiogram)” value is recorded as “Noticeable”. For Spiramycin the value was “Noticeable”; for `CCN1CCN(c2cc3c(cc2F)c(=O)c(C(=O)O)cn3C2CC2)CC1` [Enrofloxacin], “Noticeable”. For `CC1CCc2cc(F)cc3c(=O)c(C(=O)O)cn1c23` (stereo not drawn) [Flumequin] the value was “Resistant”.

As for `O=C(N[C@H](CO)[C@H](O)c1ccc([N+](=O)[O-])cc1)C(Cl)Cl` [Chloramphenicol], the “Result (antibiogram)” value is “Noticeable”. The result for `CC1(C)S[C@@H]2[C@H](NC(=O)Cc3ccccc3)C(=O)N2[C@H]1C(=O)O` [Penicillin G] reads “Noticeable”. For `CC1=C(C(=O)O)N2C(=O)[C@@H](NC(=O)[C@H](N)c3ccccc3)[C@H]2SC1` [Cefalexin] the value was “Noticeable”. The result for `[H]/N=C(/N)N[C@H]1[C@H](O)[C@@H](O)[C@H](O[C@@H]2O[C@@H](C)[C@](O)(C=O)[C@H]2O[C@@H]2O[C@@H](CO)[C@H](O)[C@@H](O)[C@@H]2NC)[C@@H](N/C(N)=N\[H])[C@@H]1O` [Streptomycin] reads “Noticeable”; that for `CC[C@H](C)[C@H](N)C1=N[C@H](C(=O)N[C@@H](CC(C)C)C(=O)N[C@H](CCC(=O)O)C(=O)N[C@H](C(=O)N[C@H]2CCCCNC(=O)[C@H](CC(N)=O)NC(=O)[C@@H](CC(=O)O)NC(=O)[C@H](Cc3cnc[nH]3)NC(=O)[C@@H](Cc3ccccc3)NC(=O)[C@H]([C@@H](C)CC)NC(=O)[C@@H](CCCN)NC2=O)[C@@H](C)CC)CS1` [Bacitracin] ({Ileψ(thiazoline)Cys}-L[dE]IK[dOrn]I[dF]H[dD]N; lactam 4-C), “Noticeable”. In the case of `C[C@H]1c2cccc(O)c2C(O)=C2C(=O)[C@]3(O)C(O)=C(C(N)=O)C(=O)[C@@H](N(C)C)[C@@H]3[C@@H](O)[C@@H]21` [Doxycyclin], the “Result (antibiogram)” value was “Noticeable”. For `CC1(C)S[C@@H]2[C@H](NC(=O)[C@H](N)c3ccccc3)C(=O)N2[C@H]1C(=O)O` [Ampicillin] the value was “Noticeable”; for `c1ccoc1` [Furan], “Resistant”; for `CCC[C@@H]1C[C@@H](C(=O)N[C@@H]([C@H]2O[C@H](SC)[C@H](O)[C@@H](O)[C@H]2O)[C@@H](C)O)N(C)C1` [Lincomycin], “Noticeable”. On to `CN(C)[C@@H]1C(=O)C(C(N)=O)=C(O)[C@@]2(O)C(=O)C3=C(O)c4c(O)cccc4[C@@](C)(O)[C@H]3C[C@@H]12` [Tetracyclin], for which the “Result (antibiogram)” value is “Noticeable”.

(Values after US20040249129A1, “Novel lactic bacteria of the genus lactococcus lactis and use thereof for preserving food products” (priority 2001, published 2004).)
